Measurements: ChEMBL document CHEMBL3779854, “Biological evaluation and molecular docking studies of new curcuminoid derivatives: Synthesis and characterization” (Bioorg Med Chem Lett, 2016)
Values after ≈ are worked out from the molar mass of the structure shown. Active and inactive are the calls of the source. The rule behind the calls is not given here.

How the values were obtained:
[1] = Antioxidant activity assessed as DPPH free radical scavenging activity by UV-visible spectrophotometric analysis; format: physicochemical
[2] = Antioxidant activity assessed as H2O2 scavenging activity; format: physicochemical
[3] = Antiinflammatory activity assessed as inhibition of albumin denaturation after 15 mins by BSA assay; format: functional
Escherichia coli [4] = experiment: Antibacterial activity against Escherichia coli ATCC 25922 at 50 ug after 24 hrs by well diffusion method; format: functional, organism-based
Escherichia coli [5] = experiment: Antibacterial activity against Escherichia coli ATCC 25922 at 10 ug after 24 hrs by well diffusion method; format: functional, organism-based
Pseudomonas aeruginosa = experiment: Antibacterial activity against Pseudomonas aeruginosa ATCC 27853 at 50 ug after 24 hrs by well diffusion method; format: functional; conditions: for zone of inhibition at 50 µg/disc: ATCC 27853, 24 h, read-out: IZ
Staphylococcus aureus [6] = experiment: Antibacterial activity against Staphylococcus aureus ATCC 25923 at 50 ug after 24 hrs by well diffusion method; format: functional, organism-based
Staphylococcus aureus [7] = experiment: Antibacterial activity against Staphylococcus aureus ATCC 25923 at 10 ug after 24 hrs by well diffusion method; format: functional, organism-based
Klebsiella pneumoniae = experiment: Antibacterial activity against Klebsiella pneumoniae ATCC 13883 at 50 ug after 24 hrs by well diffusion method; format: functional, organism-based

Compound	IC50 [1]	IC50 [2]	IC50 [3]	Activity (Escherichia coli [4])	Activity (Escherichia coli [5])	zone of inhibition at 50 µg/disc (Pseudomonas aeruginosa)	Activity (Staphylococcus aureus [6])	Activity (Staphylococcus aureus [7])	Activity (Klebsiella pneumoniae)	Activity (Pseudomonas aeruginosa)
COc1cc(/C=C/C(=O)CC(=O)/C=C/c2ccc(O)c(OC)c2)ccc1O [CURCUMIN]	52.51 µg/mL (≈ 143 µM)	52.24 µg/mL (≈ 142 µM)	129.85 µg/mL (≈ 352 µM)	Active	Active	11 mm	Active	Active	Active	–
CN(C)c1ccc(/C=C/c2cc(/C=C/c3ccc(N(C)C)cc3)n(-c3ccccc3)n2)cc1	74.03 µg/mL (≈ 170 µM)	72.42 µg/mL (≈ 167 µM)	29.44 µg/mL (≈ 67.7 µM)	Active	Active	–	Active	Active	–	–
CN(C)c1ccc(/C=C/C(=O)/C=C(O)/C=C/c2ccc(N(C)C)cc2)cc1	78.52 µg/mL (≈ 217 µM)	74.56 µg/mL (≈ 206 µM)	180.38 µg/mL (≈ 498 µM)	–	–	–	–	–	–	–
COc1cc(C=C(C(=O)/C=C/c2ccc(N(C)C)cc2)C(=O)/C=C/c2ccc(N(C)C)cc2)ccc1O	75.37 µg/mL (≈ 152 µM)	44.95 µg/mL (≈ 90.5 µM)	106.16 µg/mL (≈ 214 µM)	Active	Active	–	–	–	–	Active
O=C([O-])Cc1ccccc1Nc1c(Cl)cccc1Cl.[Na+] [DICLOFENAC SODIUM]	–	–	52.95 µg/mL	–	–	–	–	–	–	–
COc1ccccc1NC/C(C(=O)/C=C/c1ccc(N(C)C)cc1)=C(O)\C=C\c1ccc(N(C)C)cc1	76.28 µg/mL (≈ 153 µM)	53.94 µg/mL (≈ 108 µM)	81.36 µg/mL (≈ 163 µM)	–	Active	–	Active	–	–	–
COc1ccc(-n2nc(/C=C/c3ccc(N(C)C)cc3)cc2/C=C/c2ccc(N(C)C)cc2)cc1	88.05 µg/mL (≈ 190 µM)	79.59 µg/mL (≈ 171 µM)	751.12 µg/mL (≈ 1620 µM)	–	Active	–	–	inactive	–	–
CN(C)c1ccc(/C=C/c2cc(/C=C/c3ccc(N(C)C)cc3)n(-c3ccc(F)cc3)n2)cc1	74.38 µg/mL (≈ 164 µM)	89.05 µg/mL (≈ 197 µM)	216.32 µg/mL (≈ 478 µM)	Active	Active	–	Active	–	Active	–
CN(C)c1ccc(/C=C/C(=O)/C(CNc2ccc(F)cc2)=C(O)/C=C/c2ccc(N(C)C)cc2)cc1	48.16 µg/mL (≈ 99.2 µM)	46.9 µg/mL (≈ 96.6 µM)	226.71 µg/mL (≈ 467 µM)	Active	Active	12 mm	–	inactive	Active	–
CN(C)c1ccc(/C=C/C(=O)/C(CNc2ccccc2)=C(O)/C=C/c2ccc(N(C)C)cc2)cc1	79.06 µg/mL (≈ 169 µM)	52.13 µg/mL (≈ 111 µM)	808.36 µg/mL (≈ 1730 µM)	–	Active	–	Active	Active	–	–
O=C1O[C@H]([C@@H](O)CO)C(O)=C1O [ASCORBIC ACID]	65.53 µg/mL (≈ 372 µM)	68.82 µg/mL (≈ 391 µM)	–	–	–	–	–	–	–	–
CN(C)c1ccc(/C=C/c2cc(/C=C/c3ccc(N(C)C)cc3)[nH]n2)cc1	46.05 µg/mL (≈ 128 µM)	50.78 µg/mL (≈ 142 µM)	51.79 µg/mL (≈ 144 µM)	–	Active	–	–	inactive	Active	Active
CN(C)c1ccc(/C=C/C(=O)/C(CNc2cccc(C(F)(F)F)c2)=C(O)/C=C/c2ccc(N(C)C)cc2)cc1	81.69 µg/mL (≈ 153 µM)	74.6 µg/mL (≈ 139 µM)	186.05 µg/mL (≈ 347 µM)	–	inactive	–	–	inactive	–	–
